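Values below derive from 48-hour exposures of cells grown in 96-well plates, with endpoints linearly interpolated between the two concentrations bracketing the appropriate inhibition level. GI50 marks 50% less growth.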 Calls of active or inactive are those of the source. Rule as the data show it: active = GI50 up to about 1.1 µM and inactive = higher.
Key:
Assay in all cases: inhibition of tumour cell growth, NCI panel, 48 h
COLO 205 = tested on: COLO 205
SF-268 = tested on: SF-268
NCI-H226 = tested on: NCI-H226
MCF7 = tested on: MCF7
DU-145 = tested on: DU-145
MDA-N = tested on: MDA-N
SK-MEL-28 = tested on: SK-MEL-28
A498 = tested on: A498
LOX IMVI = tested on: LOX IMVI
HL-60 = tested on: HL-60
RXF 393 = tested on: RXF 393
SR = tested on: SR
NCI/ADR-RES = tested on: NCI/ADR-RES
786-0 = tested on: 786-0
OVCAR-5 = tested on: OVCAR-5
U-251 = tested on: U-251
SK-MEL-5 = tested on: SK-MEL-5
MDA-MB-435 = tested on: MDA-MB-435
KM12 = tested on: KM12
MDA-MB-231 = tested on: MDA-MB-231

Measured: GI50

CC(C)c1ccc(C(O)(C(=O)O)c2ccc(C(C)C)cc2)cc1
inactive: COLO 205 > 100 µM | SF-268 33.7 µM | NCI-H226 24.5 µM | MCF7 53.7 µM | DU-145 61.2 µM | MDA-N 70 µM | SK-MEL-28 64.9 µM | A498 57.9 µM | LOX IMVI 68.5 µM | HL-60 39.2 µM | RXF 393 61.9 µM | SR 60.8 µM | NCI/ADR-RES 73.5 µM | 786-0 51.2 µM | OVCAR-5 > 100 µM | U-251 18.2 µM | SK-MEL-5 56.8 µM | MDA-MB-435 95.7 µM | KM12 39.6 µM

CCOC(=O)C(C(=O)OCC)=C1NC2(c3ccccc3Nc3ccc(C)cc32)C(C(=O)OC)S1 (configuration not stated)
inactive: COLO 205 11.6 µM | SF-268 12.3 µM | NCI-H226 29.9 µM | MCF7 14.8 µM | DU-145 50.6 µM | MDA-N 32.9 µM | SK-MEL-28 > 100 µM | A498 10.1 µM | LOX IMVI 33.5 µM | HL-60 20 µM | RXF 393 7.18 µM | SR 6.34 µM | NCI/ADR-RES 17.5 µM | 786-0 22.9 µM | OVCAR-5 20.9 µM | U-251 23.7 µM | SK-MEL-5 13.9 µM | MDA-MB-435 30.5 µM | KM12 14.2 µM

CC(=O)/C(=C/NC(=S)N/N=C1\C(=O)Nc2ccccc21)C(=O)Nc1ccccc1C
inactive: COLO 205 > 100 µM | SF-268 > 100 µM | NCI-H226 > 100 µM | DU-145 47.1 µM | MDA-N > 100 µM | SK-MEL-28 > 100 µM | A498 57.7 µM | MDA-MB-231 91.6 µM | LOX IMVI 63.8 µM | HL-60 41 µM | RXF 393 83.8 µM | NCI/ADR-RES > 100 µM | 786-0 82.2 µM | OVCAR-5 > 100 µM | U-251 > 100 µM | SK-MEL-5 65.3 µM | MDA-MB-435 > 100 µM | KM12 98.9 µM

COC(=O)C1C(O)C(C(=O)OC)C(C)N(C)C1C (configuration not stated)
inactive: COLO 205 > 100 µM | NCI-H226 > 100 µM | MCF7 > 100 µM | MDA-N > 100 µM | SK-MEL-28 > 100 µM | A498 > 100 µM | MDA-MB-231 > 100 µM | LOX IMVI > 100 µM | HL-60 > 100 µM | RXF 393 > 100 µM | SR > 100 µM | NCI/ADR-RES > 100 µM | 786-0 > 100 µM | OVCAR-5 > 100 µM | U-251 > 100 µM | SK-MEL-5 > 100 µM | MDA-MB-435 > 100 µM | KM12 > 100 µM

COC(=O)CC[N+]1=CCC(c2ccccc2)(c2ccccc2)O1
inactive: COLO 205 > 100 µM | SF-268 > 100 µM | NCI-H226 > 100 µM | MCF7 > 100 µM | DU-145 > 100 µM | MDA-N 18.5 µM | SK-MEL-28 > 100 µM | A498 > 100 µM | MDA-MB-231 > 100 µM | RXF 393 > 100 µM | 786-0 > 100 µM | OVCAR-5 > 100 µM | U-251 > 100 µM | SK-MEL-5 > 100 µM | MDA-MB-435 41.8 µM | KM12 > 100 µM

O=C1c2c(Br)sc(Br)c2C(=O)C1(O)O
inactive: COLO 205 23.4 µM | SF-268 > 100 µM | NCI-H226 > 100 µM | MCF7 44.5 µM | DU-145 > 100 µM | MDA-N 36.8 µM | SK-MEL-28 > 100 µM | A498 > 100 µM | LOX IMVI > 100 µM | HL-60 41 µM | RXF 393 19.1 µM | SR 24.1 µM | NCI/ADR-RES > 100 µM | 786-0 34 µM | OVCAR-5 23.7 µM | U-251 39.7 µM | SK-MEL-5 19.9 µM | MDA-MB-435 19.4 µM | KM12 > 100 µM

Cc1ccc(OCC2OC(n3cnc4nc(Nc5ccc(Cl)c(Cl)c5)nc(Cl)c43)CC2Oc2ccc(C)cc2)cc1 (configuration not stated)
inactive: COLO 205 > 100 µM | SF-268 > 100 µM | NCI-H226 46.9 µM | MCF7 > 100 µM | DU-145 > 100 µM | MDA-N > 100 µM | SK-MEL-28 > 100 µM | MDA-MB-231 > 100 µM | RXF 393 > 100 µM | NCI/ADR-RES > 100 µM | 786-0 > 100 µM | OVCAR-5 > 100 µM | U-251 > 100 µM | SK-MEL-5 > 100 µM | MDA-MB-435 > 100 µM | KM12 > 100 µM

CC1OC(OC2C(OC(=O)[C@]34CCC(C)(C)C[C@H]3C3=CC[C@@H]5[C@@]6(C)CC[C@H](OC7OC(CO)C(O)C(O)C7OC7OC(CO)C(O)C(O)C7O)C(C)(C)[C@@H]6CC[C@@]5(C)[C@]3(C)CC4)OCC(O)C2O)C(O)C(O)C1OC1OCC(O)C(O)C1O (some centres not stated)
inactive: COLO 205 1.71 µM | SF-268 6.85 µM | NCI-H226 10.8 µM | MCF7 12.6 µM | DU-145 11.9 µM | SK-MEL-28 2.65 µM | A498 2.25 µM | MDA-MB-231 7.83 µM | LOX IMVI 18.2 µM | HL-60 6.11 µM | RXF 393 9.48 µM | SR 7.93 µM | NCI/ADR-RES 8.97 µM | 786-0 8.3 µM | OVCAR-5 7.98 µM | U-251 15.1 µM | SK-MEL-5 14.3 µM | MDA-MB-435 2.79 µM | KM12 7.73 µM

COC(=O)CCCc1c(-c2[nH]c3ccccc3c2CCCC(=O)OC)[nH]c2ccccc12
inactive: COLO 205 > 100 µM | SF-268 > 100 µM | NCI-H226 > 100 µM | DU-145 > 100 µM | MDA-N > 100 µM | SK-MEL-28 > 100 µM | A498 > 100 µM | MDA-MB-231 > 100 µM | LOX IMVI > 100 µM | HL-60 > 100 µM | RXF 393 > 100 µM | NCI/ADR-RES > 100 µM | 786-0 > 100 µM | OVCAR-5 > 100 µM | U-251 > 100 µM | SK-MEL-5 > 100 µM | MDA-MB-435 > 100 µM | KM12 > 100 µM

O=C(/C=C/c1cccs1)c1ccc(Cl)cc1
inactive: COLO 205 > 100 µM | SF-268 50.8 µM | NCI-H226 67.8 µM | MCF7 21.9 µM | DU-145 > 100 µM | MDA-N 44.9 µM | SK-MEL-28 > 100 µM | A498 99.3 µM | MDA-MB-231 > 100 µM | HL-60 28.6 µM | SR 28.1 µM | NCI/ADR-RES > 100 µM | 786-0 55.7 µM | OVCAR-5 > 100 µM | U-251 > 100 µM | SK-MEL-5 65.2 µM | KM12 43.9 µM

CC(C)C(C/C=C1/CC(CO)(COC(=O)c2ccccc2)OC1=O)C(C)C (configuration not stated)
inactive: COLO 205 3.63 µM | SF-268 16.8 µM | NCI-H226 16 µM | MCF7 19.6 µM | MDA-N 15.7 µM | SK-MEL-28 14.1 µM | A498 18.2 µM | MDA-MB-231 15.7 µM | LOX IMVI 23.8 µM | RXF 393 16.7 µM | SR 30.6 µM | NCI/ADR-RES 19.2 µM | 786-0 11 µM | OVCAR-5 16.9 µM | U-251 16.1 µM | SK-MEL-5 8.45 µM | MDA-MB-435 26 µM | KM12 15.9 µM

Source: ChEMBL document CHEMBL1201862, “PubChem BioAssay data set” (2004)
